Laboratory results published in patent publication US20030206968A1, “Fungicidal mixtures” (priority 1999, published 2003).
Read-outs that look alike come from different tables or passages of the source.

What was measured:
Assay type in all cases: in vivo
[1] = tested on: Puccinia recondita; experiment: Greenhouse, Puccinia recondita on wheat, 1 day residual; settings: Puccinia recondita, read-out: Observed Efficacy; for pest or weed control at 0.06 ppm: dose rate 0.06 ppm; for pest or weed control at 0.25 ppm: dose rate 0.25 ppm; for pest or weed control at 1 ppm: dose rate 1 ppm; for pest or weed control at 4 ppm: dose rate 4 ppm
Excerpt: (§1) The fungicides are applied in single treatments, or in a combination comprising an azolopyrimidine of formula I and a compound selected from the classes (A), (B) and (C) as defined above. The compounds are applied in form of an aqueous spray mix obtained from a concentrated formulation or the technical material.
(§2) 1. Seed is planted in 6 cm diameter plastic pots and maintained in the greenhouse.
(§3) 2. When the primary leaf is fully expanded in the case of cereals or several leaves are present in the case of dicots, formulated test compounds are sprayed with a three nozzle overhead fungicide sprayer to near run-off. Alternatively, a single nozzle overhead track sprayer is used for application of the compounds to cereals at a rate of 200 l/ha. Plants are then allowed to air-dry.
(§4) 3. Inoculation precedes treatment in the case of curative evaluations and follows treatment in case of residual evaluations. For inoculation of powdery mildew disease, plants are set up on greenhouse benches with bottom watering mats and inoculated by dusting them with conidia from infected plants. Between inoculation and treatment for curative evaluations and between treatment and inoculation for residual evaluations, plants are maintained in the greenhouse with bottom watering.
For inoculation of non-powdery mildew diseases, an aqueous spore suspension of the pathogen is applied to the plant and the plants are kept 1-2 days in a moist infection chamber before being returned to the greenhouse where they are maintained by bottom watering.
(§5) 4. Disease on the foliage as percent leaf area with disease symptoms/signs is evaluated about 7 days after inoculation. In the case of wheat, the tips and bases of the leaves are excluded from the evaluation. [formula]
(§6) 1. Technical compounds are formulated in a solvent/surfactant system consisting of 5% acetone and 0.05% Tween 20 in deionized water. Compounds are dissolved in acetone prior to addition of the water; the Tween 20 can be added through either the acetone or the water. Dilutions are made using the solvent/surfactant system. Formulated compounds are prepared using deionized water.
(§7) 2. Two kinds of controls are included: Plants treated with the solvent/surfactant solution and inoculated (Solvent Blank). Untreated plants which are inoculated (Inoculated Control).
(§8) Assessments of the diseases took place at the indicated day after the application of the compounds. Per cent infected leaf area infected was evaluated. The efficacy of the compounds/compounds mixtures to control the diseases was calculated by using the formula given above under item 4: […]
(§9) Synergy was calculated using the % disease control values of specific treatments for the two COLBY formula given hereinabove
Fungicidal efficacy of the mixture of Azolopyrimidine C+metconazole (1 day residual) against Puccinia recondita on wheat The tank mix was obtained from a SC formulation containing 100 g Azolopyrimidine C per liter and an EC containing 100 g metconazole per liter. […]
Fungicidal efficacy of the mixture of Azolopyrimidine C+fluazinam (1 day residual) against Puccinia recondita on wheat The tank mix was obtained from technical material of Azolopyrimidine C and a SC formulation containing 500 g fluazinam per liter. […]

[2] = tested on: Blumeria graminis; experiment: Greenhouse, Blumeria graminis on wheat, 1 day residual
Excerpt: as §1, §2, §3, §4, §5, §6, §7, §8, §9
Fungicidal efficacy of the mixture of Azolopyrimidine C+quinoxyfen (1 day residual)) against Blumeria graminis on wheat The tank mix was obtained from technical material of Azolopyrimidine C and quinoxyfen.
Fungicidal efficacy of the mixture of Azolopyrimidine C+metalaxyl (1 day residual) against Blumeria graminis on wheat The tank mix was obtained from technical material of Azolopyrimidine C and metalaxyl.
Fungicidal efficacy of the mixture of Azolopyrimidine C+famoxadone (1 day residual) against Blumeria graminis on wheat The tank mix was obtained from technical material of Azolopyrimidine C and famoxadone.

[3] = tested on: Blumeria graminis; experiment: Greenhouse, Blumeria graminis on barley, 4 days residual; settings: Example 32
Procedure: The trials are carried out under greenhouse (Examples 1 to 32) or field conditions (Examples 33 to 40) in residual or curative applications. The fungicides are applied in single treatments, or in a combination comprising an azolopyrimidine of formula I and a compound selected from the classes (A), (B) and (C) as defined above. The compounds are applied in form of an aqueous spray mix obtained from a concentrated formulation or the technical material.
as §2, §3, §4, §5, §6, §7, §8, §9
Fungicidal efficacy of the mixture of (S)-Azolopyrimidine C in admixture with Azoxystrobin (4 days residual) against Blumeria graminis on barley. The tank mixes were obtained from technical material of (S)-Azolopyrimidine C and Azoxystrobin.

[4] = tested on: Blumeria graminis; experiment: Field test, Blumeria graminis on wheat; settings: 17 days after application
Procedure, shortened: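 Field trial on wheat: formulated products (SC/EC tank mixes, alone or in mixtures) sprayed as aqueous mix at 400 l/ha by good agricultural practice. Percent infected leaf area assessed 15 or 17 days after application; efficacy calculated as disease control, with synergy judged by the Colby formula.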

Compound: CC(Nc1c(-c2c(F)cc(F)cc2F)c(Cl)nc2ncnn12)C(F)(F)F (centres unmarked) [Azolopyrimidine C, 5-chloro-6-(2,4,6-trifluorophenyl)-7-(1,1,1-trifluoroprop-2-ylamino)-[1,2,4]triazolo[1,5-a]pyrimidine]
- pest or weed control at 2 ppm ([1]; Example 11, dose rate 2 ppm): 2%
- pest or weed control at 8 ppm ([1]; Example 11, dose rate 8 ppm): 1%
- pest or weed control at 10 ppm ([1]; Example 11, dose rate 10 ppm): 3%
- pest or weed control at 25 ppm ([1]; Example 11, dose rate 25 ppm): 5%
- pest or weed control at 40 ppm ([1]; Example 11, dose rate 40 ppm): 10%
- pest or weed control at 125 ppm ([1]; Example 11, dose rate 125 ppm): 20%
- pest or weed control at 200 ppm ([1]; Example 11, dose rate 200 ppm): 35%
- pest or weed control at 0.06 ppm ([1]; Example 13): 8%
- pest or weed control at 0.25 ppm ([1]; Example 13): 41%
- pest or weed control at 1 ppm ([1]; Example 13): 71%
- pest or weed control at 4 ppm ([1]; Example 13): 100%
- pest or weed control at 0.06 ppm ([1]; Example 14): 8%
- pest or weed control at 1 ppm ([1]; Example 14): 71%
- pest or weed control at 4 ppm ([1]; Example 14): 100%
- pest or weed control at 0.06 ppm ([1]; Example 15): 8%
- pest or weed control at 0.25 ppm ([1]; Example 15): 49%
- pest or weed control at 1 ppm ([1]; Example 15): 71%
- pest or weed control at 4 ppm ([1]; Example 15): 100%
- pest or weed control at 0.06 ppm ([1]; Example 19): 8%
- pest or weed control at 0.25 ppm ([1]; Example 19): 49%
- pest or weed control at 1 ppm ([1]; Example 19): 71%
- pest or weed control at 4 ppm ([1]; Example 19): 100%
- pest or weed control at 0.86 ppm ([1]; Example 20, dose rate 0.86 ppm): 8%
- pest or weed control at 0.06 ppm ([1]; Example 21): 8%
- pest or weed control at 1 ppm ([1]; Example 22): 71%
- Observed Efficacy ([2]; Example 16, dose rate 0.06 ppm): 0%
- Observed Efficacy ([2]; Example 16, dose rate 0.25 ppm): 19%
- Observed Efficacy ([2]; Example 16, dose rate 1 ppm): 42%
- Observed Efficacy ([2]; Example 16, dose rate 4 ppm): 96%
- Observed Efficacy ([2]; Example 17, dose rate 0.06 ppm): 0%
- Observed Efficacy ([2]; Example 17, dose rate 0.25 ppm): 19%
- Observed Efficacy ([2]; Example 17, dose rate 1 ppm): 42%
- Observed Efficacy ([2]; Example 17, dose rate 4 ppm): 96%
- Observed Efficacy ([2]; Example 18, dose rate 0.06 ppm): 0%
- Observed Efficacy ([2]; Example 18, dose rate 0.25 ppm): 19%
- Observed Efficacy ([2]; Example 18, dose rate 1 ppm): 42%
- Observed Efficacy ([2]; Example 18, dose rate 4 ppm): 96%

Compound: 5-chloro-6-(2,4,6-trifluorophenyl)-7-(1,1,1-trifluoroprop-2-ylamino)-[1,2,4]triazolo[1,5-a]pyrimidine [(S)-Azolopyrimidine C]
- Observed Efficacy ([3]; dose rate 1.6 ppm): 0%
- Observed Efficacy ([3]; dose rate 3.1 ppm): 3%
- Observed Efficacy ([3]; dose rate 6.3 ppm): 8%
- Observed Efficacy ([3]; dose rate 12.5 ppm): 17%
- Observed Efficacy ([3]; dose rate 25 ppm): 22%
- Observed Efficacy ([3]; dose rate 50 ppm): 28%
- Observed Efficacy ([4]; Table XXXVI, (S)-Azolopyrimidine C 25 g/ha alone): 63
- Observed Efficacy ([4]; Table XXXVI, (S)-Azolopyrimidine C 50 g/ha alone): 78
- Observed Efficacy ([4]; Table XXXVI, (S)-Azolopyrimidine C 75 g/ha alone): 74
- Observed Efficacy ([4]; Table XXXVII, (S)-Azolopyrimidine C 25 g/ha alone): 63
- Observed Efficacy ([4]; Table XXXVII, (S)-Azolopyrimidine C 50 g/ha alone): 78
- Observed Efficacy ([4]; Table XXXVII, (S)-Azolopyrimidine C 75 g/ha alone): 74
- Observed Efficacy ([4]; Table XXXVII, (S)-Azolopyrimidine C 100 g/ha alone): 96
